#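 Where inhibition never reached the appropriate level, the endpoint shown equals the highest concentration tested. Otherwise, values were interpolated linearly from a five-concentration, 48-hour dose response in 96-well plates. GI50: concentration for 50% inhibition of growth. TGI marks complete inhibition of growth.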
# Experiments:
# Assay in all cases: inhibition of tumour cell growth, NCI panel, 48 h
# MALME-3M melanoma = system: MALME-3M melanoma
# HCT-116 colon = system: HCT-116 colon
# CAKI-1 renal = system: CAKI-1 renal
# MDA-MB-231 breast = system: MDA-MB-231 breast
# OVCAR-8 ovarian = system: OVCAR-8 ovarian
# UACC-62 melanoma = system: UACC-62 melanoma
# MCF7 breast = system: MCF7 breast
# SF-295 CNS = system: SF-295 CNS
# SR leukemia = system: SR leukemia
# SF-268 CNS = system: SF-268 CNS
# SNB-75 CNS = system: SNB-75 CNS
# SK-MEL-5 melanoma = system: SK-MEL-5 melanoma
# HOP-92 NSCLC = system: HOP-92 NSCLC
# KM12 colon = system: KM12 colon
# A549 NSCLC = system: A549 NSCLC
# NCI-H226 lung = system: NCI-H226 lung
# CCRF-CEM leukemia = system: CCRF-CEM leukemia
# 786-0 renal = system: 786-0 renal
# HCT-15 colon = system: HCT-15 colon
# U251 CNS = system: U251 CNS
# NCI-H460 lung = system: NCI-H460 lung
# OVCAR-5 ovarian = system: OVCAR-5 ovarian
# DU-145 prostate = system: DU-145 prostate
# A498 renal = system: A498 renal
# NCI-H522 lung = system: NCI-H522 lung
# COLO 205 colon = system: COLO 205 colon
# RPMI-8226 leukemia = system: RPMI-8226 leukemia
# TK-10 renal = system: TK-10 renal
# HOP-62 NSCLC = system: HOP-62 NSCLC
# UO-31 renal = system: UO-31 renal
# NCI-H23 lung = system: NCI-H23 lung
# MDA-MB-435 = system: MDA-MB-435
# MOLT-4 leukemia = system: MOLT-4 leukemia
# HS 578T breast = system: HS 578T breast
# NCI/ADR-RES ovarian = system: NCI/ADR-RES ovarian
# SNB-19 CNS = system: SNB-19 CNS
# SK-OV-3 ovarian = system: SK-OV-3 ovarian
# HT29 colon = system: HT29 colon
# SK-MEL-2 melanoma = system: SK-MEL-2 melanoma
# M14 melanoma = system: M14 melanoma
# K-562 leukemia = system: K-562 leukemia
# T-47D breast = system: T-47D breast
# IGROV1 ovarian = system: IGROV1 ovarian
# SW-620 colon = system: SW-620 colon
# ACHN renal = system: ACHN renal
# BT-549 breast = system: BT-549 breast
# PC-3 prostate = system: PC-3 prostate
# EKVX NSCLC = system: EKVX NSCLC
# OVCAR-4 ovarian = system: OVCAR-4 ovarian
# HL-60(TB) leukemia = system: HL-60(TB) leukemia
# SN12C renal = system: SN12C renal
# HCC-2998 colon = system: HCC-2998 colon
# UACC-257 melanoma = system: UACC-257 melanoma
# RXF 393 renal = system: RXF 393 renal
# SK-MEL-28 melanoma = system: SK-MEL-28 melanoma
# SF-539 CNS = system: SF-539 CNS
compound,measurement,setting,value
O=c1oc2ccc(-c3ccc(F)cc3F)cc2c(=O)n1-c1ccc(F)c(F)c1,GI50,MALME-3M melanoma,874 nM
same,TGI,MALME-3M melanoma,2510 nM
same,GI50,HCT-116 colon,1260 nM
same,TGI,HCT-116 colon,5430 nM
same,GI50,CAKI-1 renal,963 nM
same,TGI,CAKI-1 renal,3210 nM
same,GI50,MDA-MB-231 breast,894 nM
same,TGI,MDA-MB-231 breast,2340 nM
same,GI50,OVCAR-8 ovarian,1620 nM
same,TGI,OVCAR-8 ovarian,> 50000 nM
same,GI50,UACC-62 melanoma,519 nM
same,TGI,UACC-62 melanoma,1670 nM
same,GI50,MCF7 breast,1220 nM
same,TGI,MCF7 breast,> 50000 nM
same,GI50,SF-295 CNS,1150 nM
same,TGI,SF-295 CNS,3210 nM
same,GI50,SR leukemia,1870 nM
same,TGI,SR leukemia,> 50000 nM
same,GI50,SF-268 CNS,1380 nM
same,TGI,SF-268 CNS,> 50000 nM
same,GI50,SNB-75 CNS,775 nM
same,TGI,SNB-75 CNS,2540 nM
same,GI50,SK-MEL-5 melanoma,562 nM
same,TGI,SK-MEL-5 melanoma,1440 nM
same,GI50,HOP-92 NSCLC,389 nM
same,TGI,HOP-92 NSCLC,2280 nM
same,GI50,KM12 colon,1560 nM
same,TGI,KM12 colon,5260 nM
same,GI50,A549 NSCLC,1580 nM
same,TGI,A549 NSCLC,> 50000 nM
same,GI50,NCI-H226 lung,1410 nM
same,TGI,NCI-H226 lung,6240 nM
same,GI50,CCRF-CEM leukemia,1470 nM
same,TGI,CCRF-CEM leukemia,> 50000 nM
same,GI50,786-0 renal,1670 nM
same,TGI,786-0 renal,> 50000 nM
same,GI50,HCT-15 colon,1340 nM
same,TGI,HCT-15 colon,5240 nM
same,GI50,U251 CNS,1530 nM
same,TGI,U251 CNS,> 50000 nM
same,GI50,NCI-H460 lung,1320 nM
same,TGI,NCI-H460 lung,> 50000 nM
same,GI50,OVCAR-5 ovarian,1620 nM
same,TGI,OVCAR-5 ovarian,> 50000 nM
same,GI50,DU-145 prostate,1750 nM
same,TGI,DU-145 prostate,> 50000 nM
same,GI50,A498 renal,374 nM
same,TGI,A498 renal,1700 nM
same,GI50,NCI-H522 lung,666 nM
same,TGI,NCI-H522 lung,8620 nM
same,GI50,COLO 205 colon,8250 nM
same,TGI,COLO 205 colon,27100 nM
same,GI50,RPMI-8226 leukemia,589 nM
same,TGI,RPMI-8226 leukemia,2400 nM
same,GI50,TK-10 renal,1610 nM
same,TGI,TK-10 renal,16900 nM
same,GI50,HOP-62 NSCLC,1410 nM
same,TGI,HOP-62 NSCLC,5940 nM
same,GI50,UO-31 renal,1100 nM
same,TGI,UO-31 renal,4670 nM
same,GI50,NCI-H23 lung,936 nM
same,TGI,NCI-H23 lung,2970 nM
same,GI50,MDA-MB-435,1280 nM
same,TGI,MDA-MB-435,5460 nM
same,GI50,MOLT-4 leukemia,1480 nM
same,TGI,MOLT-4 leukemia,6730 nM
same,GI50,HS 578T breast,1570 nM
same,TGI,HS 578T breast,> 50000 nM
same,GI50,NCI/ADR-RES ovarian,1320 nM
same,TGI,NCI/ADR-RES ovarian,> 50000 nM
same,GI50,SNB-19 CNS,1610 nM
same,TGI,SNB-19 CNS,> 50000 nM
same,GI50,SK-OV-3 ovarian,1270 nM
same,TGI,SK-OV-3 ovarian,> 50000 nM
same,GI50,HT29 colon,8900 nM
same,TGI,HT29 colon,> 50000 nM
same,GI50,SK-MEL-2 melanoma,797 nM
same,TGI,SK-MEL-2 melanoma,3070 nM
same,GI50,M14 melanoma,1610 nM
same,TGI,M14 melanoma,35500 nM
same,GI50,K-562 leukemia,1160 nM
same,TGI,K-562 leukemia,> 50000 nM
same,GI50,T-47D breast,418 nM
same,TGI,T-47D breast,3640 nM
same,GI50,IGROV1 ovarian,1700 nM
same,TGI,IGROV1 ovarian,> 50000 nM
same,GI50,SW-620 colon,1770 nM
same,TGI,SW-620 colon,> 50000 nM
same,GI50,ACHN renal,1410 nM
same,TGI,ACHN renal,4880 nM
same,GI50,BT-549 breast,1350 nM
same,TGI,BT-549 breast,4900 nM
same,GI50,PC-3 prostate,1420 nM
same,TGI,PC-3 prostate,> 50000 nM
same,GI50,EKVX NSCLC,1460 nM
same,TGI,EKVX NSCLC,7350 nM
same,GI50,OVCAR-4 ovarian,1350 nM
same,TGI,OVCAR-4 ovarian,> 50000 nM
same,GI50,HL-60(TB) leukemia,1060 nM
same,TGI,HL-60(TB) leukemia,3070 nM
same,GI50,SN12C renal,1030 nM
same,TGI,SN12C renal,4290 nM
same,GI50,HCC-2998 colon,1700 nM
same,TGI,HCC-2998 colon,48700 nM
same,GI50,UACC-257 melanoma,730 nM
same,TGI,UACC-257 melanoma,4040 nM
same,GI50,RXF 393 renal,1270 nM
same,TGI,RXF 393 renal,4020 nM
same,GI50,SK-MEL-28 melanoma,1190 nM
same,TGI,SK-MEL-28 melanoma,8200 nM
same,GI50,SF-539 CNS,1690 nM
same,TGI,SF-539 CNS,13800 nM

# Reference: PubChem BioAssay (NCI)
